# Laboratory results as given in patent publication US20010012854A1, “MULTICATALYTIC PROTEASE INHIBITORS FOR USE AS ANTI-TUMOR AGENTS” (priority 1997, published 2001).
# Legend:
# [1] = molecular target: MCP chymotrypsin-like activity (Homo sapiens, UniProt P28074); assay: Inhibition of MCP chymotrypsin-like activity; format: biochemical
# Excerpt: (§1) The rank-order potency for Jurkat cell killing precisely matched the order for MCP inhibition (Table 2, below).
# Inhibition of the chymotrypsin-like activity of MCP by the disclosed MCP inhibitors has been reported, but these MCP inhibitors produced relatively little inhibition on the MCP trypsin-like activity and cathepsin B, a vacuolar cysteine protease (Iqbal, M., et al. J. Med Chem. 38: 2276-2277, 1995; Iqbal, M., et al. Bioorg. Med. Chem. Lett. 6: 287-290, 1996; and Harding, C. V., et al. J. Immuno. 155: 1767-1775, 1995). Furthermore, the order of potency for inhibition of the chymotrypsin-like activity was reported to be Compound A>Compound B>Compound C by using both isolated MCP and intact murine B cells (Iqbal, M., et al. J. Med Chem. 38: 2276-2277, 1995; Iqbal, M., et al. Bioorg. Med. Chem. Lett. 6: 287-290, 1996; and Harding, C. V., et al. J. Immuno. 155: 1767-1775, 1995).
# [2] = test system: human Jurkat T cells; assay: Apoptosis in Jurkat T cells (flow cytometry sub-G1 DNA content, DNA fragmentation); format: cell-based; details: for Increase in the apoptotic population with sub-G1 DNA content: Jurkat T cells, 15 μM, 8 h
# Procedure: (§2) c. Treatment of cells with MCP inhibitor. Cells were treated with a specified MCP Inhibitor, a standard anticancer agent (etoposide or cisplatin), or DMSO (vehicle). During this process, morphological changes and cellular detachment (for attached cell lines) were monitored. At each time point, cells were harvested, and used for measurement of apoptosis and other biochemical events. In Example 1, infra, involving YVAD-CMK, Compound A was first added to Jurkat T cells. This was followed immediately by dividing the cells into multiple tissue culture flasks. YVAD-CMK was then added to an indicated concentration.
# (§3) d. Flow cytometry nuclear staining and DNA fragmentation assays. DNA content analysis using flow cytometry was performed as described previously (Nicoletti, I., et al. J. Immunol. Methods 139:271-279, 1992). To assay nuclear morphology, cells were washed with PBS, fixed with 70% ethanol for 1 h, and stained with Hoechst 33258 (1 mM) for 30 min. The nuclear morphology of cells was visualized by fluorescence microscope (OLYMPUS BH2). DNA fragmentation was assayed as described previously (Grant, S., et al. Cancer Res. 52:6270-6278, 1992).
# (§4) Example 1 was designed to determine if MCP is involved in the survival signaling pathway(s) and if inhibition of MCP activity induces apoptosis. Human Jurkat T cells were treated with 30 μM Compound A for 4 h. […] Both the p112 and p115 forms of RB as p112-115/RB were combined and used as an apoptosis marker.
# When human Jurkat T cells were treated with 15 μM Compound A for 8 h, there was a 23% increase in the apoptotic population with sub-G1 DNA content (FIG. 2, panels b vs. a). By comparison, when Compound B was used, only an 8%-increase in sub-G1 population was detected (FIG. 2, panels c vs. a).
# [3] = test system: Jurkat Human T Cell Leukemia Line; assay: Jurkat cell viability assay (XTT reduction); format: cell-based; details: Jurkat cells, 24 hours, viability by XTT reduction, read-out: Toxicity (IC50)
# Procedure: f. Cell viability assay. Jurkat cells were treated with MCP inhibitors or vehicle for 30 min. at 37° C. Next, ionomycin (1 μM) and the phorbol ester PMA (10 ng/ml) were added, together with 0.2% ethanol. After 24 h, cell viability was assessed by reduction of XTT (Sigma, X4251). To each well, 50 μl of XTT (1 mg/ml) and 25 μl PMS (Sigma 9625, 5 mM) were added. After 3 h at 37° C., the OD of each well was read at 450 nm/690 nm by a plate reader.
# as §1
# [4] = test system: Jurkat cells transfected with a control vector; assay: Apoptotic nuclear changes (Hoechst staining) in Jurkat cells transfected with control vector; format: cell-based, human; details: 50 μM, 8 h
# Procedure: (§5) b. Cell culture. Human Jurkat T and HL-60 cells were grown in RPMI 1640 (Life Technologies, Inc.) supplemented with 10% fetal calf serum (Sigma), 100 units/ml of penicillin, 100 μg/ml of streptomycin and 2mM L-glutamine (growth medium). Jurkat T. cells overexpressing the Bcl-2 oncoprotein or vector alone (provided by Dr. D. Johnson, University of Pittsburgh, Pa.) were grown in the same growth medium with […] G418. Human cancer cell lines of breast (MCF-7, MDA-MB-231), prostate (DU145, PC3) and osteosarcoma (U2-OS), obtained from American Type Culture Collection (ATCC. Rockville, Md.)), were also grown in the RPMI growth medium. Human oral (SCC-25; from ATCC) and brain (SNB-19; Welch, W. C., et al. In Vitro Cell. Dev. Biol., 31:610-616, 1995) cancer cell lines, and normal (WI-38) and SV40-transformed human fibroblasts (WI-38 VA-13; from ATCC) were grown in DMEM medium containing 10% fetal calf serum, penicillin, streptomycin and L-glutamine.
# as §3
# The apoptosis-inducing potency of Compound A was compared with two standard chemotherapeutic anti-cancer agents, etoposide and cisplatin. […] By comparison, treatment with 50 μM etoposide for 8 h induced only ˜47% of these cells to undergo apoptosis (FIG. 3, panels c vs. a). Treatment of 10 μM Compound A, but not etoposide or cisplatin, induced apoptosis in human prostate, breast, tongue and brain cancer cells and also in SV40 DNA virus-transformed human fibroblasts (see FIGS. 5-7).
# [5] = test system: human breast cancer MCF-7 cells; assay: Detachment and apoptotic nuclear changes in MCF-7 cells; format: cell-based; details: MCF-7, 24 h
# Procedure: as §2, §3
# (§6) Detachment was also found in at least half of human breast cancer MDA-MB-231 and MCF-7 cells, after exposure to Compound A for 24 h.
# [6] = test system: SV40-transformed human fibroblasts (WI-38 VA13); assay: Detachment, apoptotic nuclear changes and PARP cleavage in SV40-transformed fibroblasts; format: cell-based; details: WI-38 VA13, 10 μM, up to 22 h
# Procedure: as §2, §3
# (§7) e. Whole cell extracts and western blot assay. To prepare whole cell extracts, cells were washed with PBS, and homogenized in lysis buffer (50 mM Tris, pH 8.0, 5 mM EDTA, 150 mM NaCl, 0.5% Nonidet P-40, 0.5 mM PMSF and 0.5 mM dithiothreitol). Following 30 min rocking at 4° C., the lysates were centrifuged and the supernatants were collected as whole cell extracts. The protein samples were then analyzed by sodium dodecyl sulfate-6% polyacrylamide gel electrophoresis (20-60 μg protein per lane) followed by the enhanced chemiluminescence Western blot assay using specific antibodies to CPP32, PARP, p21, p27 or RB.
# (§8) Whether Compound A has, any selectivity in induction of apoptosis between transformed and normal cells was investigated. Normal human fibroblast cell line (WI-38) and its SV40-transformed derivative (WI-38 VA13) were utilized. […]
# [7] = test system: Human prostate cancer PC-3 cells; assay: Detachment and apoptotic nuclear changes in PC-3 cells; format: cell-based; details: PC-3, 10 μM, 36 h
# Procedure: as §2, §3
# Human prostate cancer PC-3 cells were treated with 10 μM Compound A, etoposide, or an equal percentage of vehicle (DMSO), followed by separation of the attached and detached cell populations. Both attached and detached cell populations were then used for detection of apoptotic nuclear changes. After 36 h treatment with Compound A, ˜50% of PC-3 cells became detached.
# [8] = test system: human breast cancer MDA-MB-231 cells; assay: Detachment and apoptotic nuclear changes in MDA-MB-231 cells; format: cell-based; details: MDA-MB-231, 24 h
# Procedure: as §2, §3, §6
# [9] = test system: Normal human fibroblast cell line (WI-38); assay: Detachment, apoptotic nuclear changes and PARP cleavage in normal fibroblasts; format: cell-based; details: normal WI-38, 10 μM, up to 22 h
# Procedure: as §2, §3, §7, §8
# [10] = test system: p21 and p27 in human breast cancer MDA-MB-231 cells; assay: Western blot of p21 and p27 levels in MDA-MB-231 cells; format: cell-based; details: MDA-MB-231, 17 hours, concentrations up to 100 μM
# Procedure: as §7
# Additionally, a band of 70 kDa whih may represent ubiquinated p70 was also observed. In contrast, etoposide caused only limited accumulation of p21 (≦4-fold) and p27 (≦2-fold) at 17 hours when used at concentrations up to 100 μM.
# [11] = test system: Bcl-2-overexpressing Jurkat cells; assay: Apoptosis in Bcl-2-overexpressing Jurkat cells (nuclear staining, western blot); format: cell-based, human
# Procedure: as §5, §3, §7
# It has been shown that overexpression of Bcl-2 oncoprotein inhibits apoptosis in many cell systems (Miura, M., et al., J. Cell 75: 653-660, 1993). Bcl-2 expression in human Jurkat T cells for inhibition of Compound A-induced apoptosis was investigated.
# [12] = test system: human prostate cancer DU145 cells; assay: Detachment and apoptotic nuclear changes in DU145 cells; format: cell-based; details: DU145, 16 h
# Procedure: as §2, §3
# Similar to PC-3, about half of human prostate cancer DU145 cells became detached after exposure to Compound A for 16 h.
# [13] = test system: PARP, RB and caspase-3 cleavage in Jurkat T cells; assay: Western blot of caspase-3, PARP and RB in Jurkat T cells; format: cell-based, human; details: Jurkat T cells, 15 μM, time course up to 24 h
# Procedure: as §7, §4
# The ability of these three MCP inhibitors to induce changes in PARP and RB proteins in a parallel experiment was also investigated. […] This rank corresponded exactly to that of the three compounds for inhibition of the chymotrypsin-like activity in isolated proteasomes (Iqbal, M., et al. J. Med Chem. 38: 2276-2277, 1995; Iqbal, M., et al. Bioorg. Med. Chem. Lett. 6: 287-290, 1996) and in intact murine B cells (Harding, C. V., et al. J Immuno. 155: 1767-1775, 1995).
# [14] = test system: human leukemia HL-60 cells; assay: Apoptosis in HL-60 cells (DNA fragmentation, PARP cleavage); format: cell-based
# Procedure: as §3, §7
# Example 1 was designed to determine if MCP is involved in the survival signaling pathway(s) and if inhibition of MCP activity induces apoptosis. Human Jurkat T cells were treated with 30 μM Compound A for 4 h. […]
compound,measurement,setting,value
COC(=O)CCCCCCCCC(C(=O)N[C@@H](CCCNC(=N)NS(=O)(=O)c1ccc2c(c1)CCC(C)(C)O2)C(=O)N[C@H](C=O)CC(C)C)C1CCCC1 (some centres unmarked) [F],IC50,[1],10 nM
"Acetyl-YVAD-chloromethyl ketone [YVAD-CMK, reference compound]","Block of Compound A-induced apoptotic events (apoptotic peak, caspase-3 processing, PARP cleavage, RB dephosphorylation and cleavage)",[2]; added to Compound A-treated Jurkat T cells,completely blocked
COC(=O)CCCCCCCCC(C(=O)N[C@@H](CCCNC(=N)NS(=O)(=O)c1ccc2c(c1)CCC(C)(C)O2)C(=O)NC(C=O)CC(C)C)C1CCCC1 (some centres unmarked) [F],IC50,[3],1700 nM
"COc1cc([C@@H]2c3cc4c(cc3[C@@H](O[C@@H]3O[C@@H]5CO[C@@H](C)O[C@H]5[C@H](O)[C@H]3O)[C@H]3COC(=O)[C@H]23)OCO4)cc(OC)c1O [etoposide, reference compound]",Cells exhibiting apoptotic nuclear changes,[4],~47%
same,Apoptosis by nuclear staining,[5],did not induce apoptosis
same,Detachment and apoptotic nuclear changes,[6],did not induce apoptosis in either transformed or normal WI-38 cells
same,Detached cells,[7],Little or no detachment
same,Nuclear morphology (apoptotic condensation and fragmentation),[7],"all the remaining attached cells contained normal, round nuclei"
same,Apoptosis by nuclear staining,[8],did not induce apoptosis
same,Detachment and apoptotic nuclear changes,[9],did not induce apoptosis in either transformed or normal WI-38 cells
same,Accumulation of p21,[10],≤ 4 fold
same,Accumulation of p27,[10],≤ 2 fold
same,Effect of Bcl-2 expression on induced PARP and RB changes,[11]; 50 μM,inhibited these PARP and RB changes
same,Effect of Bcl-2 expression on induced apoptotic nuclear changes,"[11]; etoposide treatment as in FIG. 3 (50 μM, 8 h)",blocked the apoptotic nuclear changes induced by etoposide
same,Detached cells,[12],very little detachment
same,Nuclear morphology,[12],the remaining attached cells still contained normal nuclei
CC(C)C[C@@H](C=O)NC(=O)[C@@H](CCCNC(=N)N[N+](=O)[O-])NC(=O)C(CCCCCCCCC#N)C1CCCC1 (some centres unmarked) [Compound B],Increase in the apoptotic population with sub-G1 DNA content,[2],8%
same,IC50,[3],1600 nM
same,Production of p85/PARP and p112-115/RB,[13],much less p85/PARP and p 112-115/RB were found before 8 h
same,IC50,[1],6 nM
same,Internucleosomal fragmentation of DNA,[14],induced internucleosomal fragmentation of DNA
Cc1c(C)c(S(=O)(=O)NC(=N)NCCC[C@H](NC(=O)C(CCCCCCCCC#N)C2CCCC2)C(=O)N[C@H](C=O)CC(C)C)c(C)c2c1OC(C)(C)CC2 (some centres unmarked) [G],IC50,[3],5700 nM
same,IC50,[1],20 nM
CC(C)CC(C=NNC(N)=O)NC(=O)C(CCCNC(=N)N[N+](=O)[O-])NC(=O)C(CCCCCCCCC#N)C1CCCC1 (centres unmarked) [H],IC50,[3],> 30000 nM
same,IC50,[1],300 nM
CCNC(=O)C(=O)C(CC(C)C)NC(=O)C(CCCN/C(N)=N/[N+](=O)[O-])NC(=O)C(CCCCCCCCC#N)C1CCCC1 (centres unmarked) [Compound C],Increase in the apoptotic population with sub-G1 DNA content,[2],did not induce apoptosis
same,IC50,[3],9700 nM
same,Production of p85/PARP and p112-115/RB,[13],only induced little p85/PARP and p112-115/RB after 24 h
same,IC50,[1],21 nM
